Experimental data as given in patent US4731109A, “Herbicidal 2-haloacetanilides” (Monsanto Company, priority 1982, dated 1988).
Like-named read-outs stand apart in the source and are kept apart here.

What was measured:
Test in all cases: Field pre-emergence selectivity test
Type in all cases: in vivo
[1] = tested on: Smartweed; conditions: 1008 h, 6 weeks, read-out: Percent Inhibition; for inhibition at 1120 g/ha: 1.12 Kg/Ha; for inhibition at 2240 g/ha: 2.24 Kg/Ha
Description: (§1) The compound of Examples 1 and 2 was also tested in the field to determine its pre-emergence selectivity against foxtail (spp), barnyardgrass, wild proso millet, smartweed, lambsquarters and pigweed in a plurality of crops; the data (representing three replicate runs) are shown in Table VII for both surface application (S.A.) and soil incorporation (PPI, i.e., preplant incorporation) of the herbicide. The seeds were planted in a fine seedbed of silt loam of intermediate moisture. The seeds were planted at a depth of two inches (5.08 cm). First rainfall (0.2"; 0.51 cm) occurred the day following treatment, the second rain (0.25"; […]) two days after treatment; cumulative rainfall 22 days after treatment was 1.8" (4.57 cm). Observations were made 6 weeks after treatment.

[2] = tested on: rape; conditions: 1008 h, 6 weeks, read-out: Percent Inhibition; for inhibition at 560 g/ha: 0.56 Kg/Ha; for inhibition at 1120 g/ha: 1.12 Kg/Ha; for inhibition at 2240 g/ha: 2.24 Kg/Ha; for inhibition at 4480 g/ha: 4.48 Kg/Ha
Description: as §1

[3] = tested on: pigweed; conditions: Amaranthus retroflexus, 1008 h, 6 weeks, read-out: Percent Inhibition; for inhibition at 560 g/ha: 0.56 Kg/Ha; for inhibition at 1120 g/ha: 1.12 Kg/Ha
Description: as §1

[4] = tested on: Sorghum; conditions: 1008 h, 6 weeks, read-out: Percent Inhibition; for inhibition at 560 g/ha: 0.56 Kg/Ha; for inhibition at 1120 g/ha: 1.12 Kg/Ha; for inhibition at 2240 g/ha: 2.24 Kg/Ha; for inhibition at 4480 g/ha: 4.48 Kg/Ha
Description: as §1

[5] = tested on: Barnyardgrass; conditions: Echinochloa crus-galli, 1008 h, 6 weeks, read-out: Percent Inhibition; for inhibition at 560 g/ha: 0.56 Kg/Ha; for inhibition at 1120 g/ha: 1.12 Kg/Ha; for inhibition at 2240 g/ha: 2.24 Kg/Ha; for inhibition at 4480 g/ha: 4.48 Kg/Ha
Description: as §1

[6] = tested on: foxtail (spp); conditions: Setaria, 1008 h, 6 weeks, read-out: Percent Inhibition; for inhibition at 560 g/ha: 0.56 Kg/Ha; for inhibition at 1120 g/ha: 1.12 Kg/Ha; for inhibition at 2240 g/ha: 2.24 Kg/Ha; for inhibition at 4480 g/ha: 4.48 Kg/Ha
Description: as §1

[7] = tested on: soybeans; conditions: Glycine max, 1008 h, 6 weeks, read-out: Percent Inhibition; for inhibition at 560 g/ha: 0.56 Kg/Ha; for inhibition at 1120 g/ha: 1.12 Kg/Ha; for inhibition at 2240 g/ha: 2.24 Kg/Ha; for inhibition at 4480 g/ha: 4.48 Kg/Ha
Description: as §1

[8] = tested on: Bush Bean; conditions: 1008 h, 6 weeks, read-out: Percent Inhibition; for inhibition at 560 g/ha: 0.56 Kg/Ha; for inhibition at 1120 g/ha: 1.12 Kg/Ha; for inhibition at 2240 g/ha: 2.24 Kg/Ha; for inhibition at 4480 g/ha: 4.48 Kg/Ha
Description: as §1

[9] = tested on: Field Corn; conditions: Zea mays, 1008 h, 6 weeks, read-out: Percent Inhibition; for inhibition at 560 g/ha: 0.56 Kg/Ha; for inhibition at 1120 g/ha: 1.12 Kg/Ha; for inhibition at 2240 g/ha: 2.24 Kg/Ha; for inhibition at 4480 g/ha: 4.48 Kg/Ha
Description: as §1

[10] = tested on: peanuts; conditions: 1008 h, 6 weeks, read-out: Percent Inhibition; for inhibition at 560 g/ha: 0.56 Kg/Ha; for inhibition at 1120 g/ha: 1.12 Kg/Ha; for inhibition at 2240 g/ha: 2.24 Kg/Ha; for inhibition at 4480 g/ha: 4.48 Kg/Ha
Excerpt: (§2) The seeds were planted in a fine seedbed of silt loam of intermediate moisture. The seeds were planted at a depth of two inches (5.08 cm). First rainfall (0.2"; 0.51 cm) occurred the day following treatment, the second rain (0.25"; […]) two days after treatment; cumulative rainfall 22 days after treatment was 1.8" (4.57 cm). Observations were made 6 weeks after treatment.

[11] = tested on: cotton; conditions: Gossypium hirsutum, 1008 h, 6 weeks, read-out: Percent Inhibition; for inhibition at 560 g/ha: 0.56 Kg/Ha; for inhibition at 1120 g/ha: 1.12 Kg/Ha; for inhibition at 2240 g/ha: 2.24 Kg/Ha; for inhibition at 4480 g/ha: 4.48 Kg/Ha
Excerpt: as §2

[12] = tested on: Sweet Corn; conditions: Zea mays, 1008 h, 6 weeks, read-out: Percent Inhibition; for inhibition at 560 g/ha: 0.56 Kg/Ha; for inhibition at 1120 g/ha: 1.12 Kg/Ha; for inhibition at 2240 g/ha: 2.24 Kg/Ha; for inhibition at 4480 g/ha: 4.48 Kg/Ha
Excerpt: as §2

[13] = tested on: Lambsquarters; conditions: Chenopodium album, 1008 h, 6 weeks, read-out: Percent Inhibition; for inhibition at 2240 g/ha: 2.24 Kg/Ha; for inhibition at 4480 g/ha: 4.48 Kg/Ha
Excerpt: as §2

`CC(C)OCN(C(=O)CCl)c1ccccc1C(F)(F)F` [Example 2, N--(isopropoxymethyl)-2'-trifluoromethyl-2-chloroacetanilide] was tested, and the inhibition at 1120 g/ha ([1]; P.P.I.) was 75%, the inhibition at 2240 g/ha ([1]; P.P.I.) was 95% and the inhibition at 560 g/ha ([1]; S.A., 0.56 Kg/Ha) was 0%. The inhibition at 1120 g/ha ([1]; S.A.) was 10%, the inhibition at 2240 g/ha ([1]; S.A.) was 20% and the inhibition at 4480 g/ha ([1]; S.A., 4.48 Kg/Ha) was 63%. For the same molecule, the inhibition at 560 g/ha ([2]; P.P.I.) was 0%, the inhibition at 1120 g/ha ([2]; P.P.I.) was 15% and the inhibition at 2240 g/ha ([2]; P.P.I.) was 27%. For the same molecule, the inhibition at 4480 g/ha ([2]; P.P.I.) was 35%, the inhibition at 560 g/ha ([2]; S.A.) was 0% and the inhibition at 1120 g/ha ([2]; S.A.) was 5%. It also gave an inhibition at 2240 g/ha ([2]; S.A.) of 0%, an inhibition at 4480 g/ha ([2]; S.A.) of 30% and an inhibition at 560 g/ha ([3]; P.P.I.) of 33%. It also gave an inhibition at 1120 g/ha ([3]; P.P.I.) of 85%, an inhibition at 2240 g/ha ([3]; P.P.I., 2.24 Kg/Ha) of 85% and an inhibition at 4480 g/ha ([3]; P.P.I., 4.48 Kg/Ha) of 88%. It also gave an inhibition at 560 g/ha ([3]; S.A.) of 0%, an inhibition at 1120 g/ha ([3]; S.A.) of 0% and an inhibition at 560 g/ha ([4]; P.P.I.) of 7%. It also gave an inhibition at 1120 g/ha ([4]; P.P.I.) of 27%, an inhibition at 2240 g/ha ([4]; P.P.I.) of 38% and an inhibition at 4480 g/ha ([4]; P.P.I.) of 90%. For the same molecule, the inhibition at 560 g/ha ([4]; S.A.) was 0%, the inhibition at 1120 g/ha ([4]; S.A.) was 0% and the inhibition at 2240 g/ha ([4]; S.A.) was 5%. The inhibition at 4480 g/ha ([4]; S.A.) was 33%, the inhibition at 560 g/ha ([5]; P.P.I.) was 85% and the inhibition at 1120 g/ha ([5]; P.P.I.) was 88%. For the same molecule, the inhibition at 2240 g/ha ([5]; P.P.I.) was 95%, the inhibition at 4480 g/ha ([5]; P.P.I.) was 100% and the inhibition at 560 g/ha ([5]; S.A.) was 50%. For the same molecule, the inhibition at 1120 g/ha ([5]; S.A.) was 87%, the inhibition at 2240 g/ha ([5]; S.A.) was 90% and the inhibition at 4480 g/ha ([5]; S.A.) was 97%. The inhibition at 560 g/ha ([6]; P.P.I.) was 77%, the inhibition at 1120 g/ha ([6]; P.P.I.) was 78% and the inhibition at 2240 g/ha ([6]; P.P.I.) was 87%. The inhibition at 4480 g/ha ([6]; P.P.I.) was 100%, the inhibition at 560 g/ha ([6]; S.A.) was 50% and the inhibition at 1120 g/ha ([6]; S.A.) was 85%. For the same molecule, the inhibition at 2240 g/ha ([6]; S.A.) was 90%, the inhibition at 4480 g/ha ([6]; S.A.) was 97% and the inhibition at 560 g/ha ([7]; P.P.I.) was 3%. For the same molecule, the inhibition at 1120 g/ha ([7]; P.P.I.) was 0%, the inhibition at 2240 g/ha ([7]; P.P.I.) was 13% and the inhibition at 4480 g/ha ([7]; P.P.I.) was 28%. For the same molecule, the inhibition at 560 g/ha ([7]; S.A.) was 0%, the inhibition at 1120 g/ha ([7]; S.A.) was 0% and the inhibition at 2240 g/ha ([7]; S.A.) was 3%. For the same molecule, the inhibition at 4480 g/ha ([7]; S.A.) was 10%, the inhibition at 560 g/ha ([8]; P.P.I.) was 5% and the inhibition at 1120 g/ha ([8]; P.P.I.) was 13%. For the same molecule, the inhibition at 2240 g/ha ([8]; P.P.I.) was 22%, the inhibition at 4480 g/ha ([8]; P.P.I.) was 63% and the inhibition at 560 g/ha ([8]; S.A.) was 0%. For the same molecule, the inhibition at 1120 g/ha ([8]; S.A.) was 0%, the inhibition at 2240 g/ha ([8]; S.A.) was 5% and the inhibition at 4480 g/ha ([8]; S.A.) was 33%. The inhibition at 560 g/ha ([9]; P.P.I.) was 0%, the inhibition at 1120 g/ha ([9]; P.P.I.) was 0% and the inhibition at 2240 g/ha ([9]; P.P.I.) was 0%. For the same molecule, the inhibition at 4480 g/ha ([9]; P.P.I.) was 13%, the inhibition at 560 g/ha ([9]; S.A.) was 0% and the inhibition at 1120 g/ha ([9]; S.A.) was 0%. It also gave an inhibition at 2240 g/ha ([9]; S.A.) of 0%, an inhibition at 4480 g/ha ([9]; S.A.) of 10% and an inhibition at 560 g/ha ([10]; P.P.I.) of 0%. For the same molecule, the inhibition at 1120 g/ha ([10]; P.P.I.) was 5%, the inhibition at 2240 g/ha ([10]; P.P.I.) was 17% and the inhibition at 4480 g/ha ([10]; P.P.I.) was 45%. The inhibition at 560 g/ha ([10]; S.A.) was 0%, the inhibition at 1120 g/ha ([10]; S.A.) was 0% and the inhibition at 2240 g/ha ([10]; S.A.) was 5%. For the same molecule, the inhibition at 4480 g/ha ([10]; S.A.) was 20%, the inhibition at 560 g/ha ([11]; P.P.I.) was 10% and the inhibition at 1120 g/ha ([11]; P.P.I.) was 23%. It also gave an inhibition at 2240 g/ha ([11]; P.P.I.) of 30%, an inhibition at 4480 g/ha ([11]; P.P.I.) of 75% and an inhibition at 560 g/ha ([11]; S.A.) of 0%. For the same molecule, the inhibition at 1120 g/ha ([11]; S.A.) was 8%, the inhibition at 2240 g/ha ([11]; S.A.) was 8% and the inhibition at 4480 g/ha ([11]; S.A.) was 43%. It also gave an inhibition at 560 g/ha ([12]; P.P.I.) of 0%, an inhibition at 1120 g/ha ([12]; P.P.I.) of 0% and an inhibition at 2240 g/ha ([12]; P.P.I.) of 13%. It also gave an inhibition at 4480 g/ha ([12]; P.P.I.) of 35%, an inhibition at 560 g/ha ([12]; S.A.) of 0% and an inhibition at 1120 g/ha ([12]; S.A.) of 0%. For the same molecule, the inhibition at 2240 g/ha ([12]; S.A.) was 0%, the inhibition at 4480 g/ha ([12]; S.A.) was 23% and the inhibition at 2240 g/ha ([13]; P.P.I.) was 95%. It also gave an inhibition at 4480 g/ha ([13]; P.P.I.) of 100%, an inhibition at 560 g/ha ([13]; S.A., 0.56 Kg/Ha) of 0% and an inhibition at 1120 g/ha ([13]; S.A., 1.12 Kg/Ha) of 7%. The inhibition at 2240 g/ha ([13]; S.A.) was 20% and the inhibition at 4480 g/ha ([13]; S.A.) was 62%.
